From the OPERA property sets (Mansouri et al. 2018)

Settings: for log10 BCF / log10 biotransformation half-life (days): fish

## CCCCCCCCOC(=O)c1ccccc1C(=O)OCCCCCCCC
  log10 Koc (L/kg): 4.38
  log10 vapour pressure (mmHg): -7
  ready biodegradability: readily biodegradable

## COc1ccccc1N
  boiling point: 224 °C
  log10 vapour pressure (mmHg): -1.1
  melting point: 6.2 °C
  ready biodegradability: readily biodegradable

## CC1CCCCC1O (configuration not stated)
  boiling point: 164 °C
  log10 Henry constant (atm·m³/mol): -5.12

## C[C@@H]1O[C@@H](O[C@H]2C[C@@H](O)[C@]3(CO)[C@H]4[C@H](O)C[C@]5(C)[C@@H](C6=CC(=O)OC6)CC[C@]5(O)[C@@H]4CC[C@]3(O)C2)[C@H](O)[C@H](O)[C@H]1O
  melting point: 200 °C

## O=C[C@@H]1C[C@@H]2[C@@H]3[C@H]1[C@@]1(Cl)C(Cl)(Cl)[C@]3(Cl)[C@@]3(Cl)[C@@H]2[C@]31Cl
  log10 vapour pressure (mmHg): -6.7

## c1ccc(C(c2ccccc2)c2ccccc2)cc1
  boiling point: 359 °C
  log10 vapour pressure (mmHg): -5.25
  melting point: 94 °C

## O=CCC=O
  melting point: 72 °C

## Cc1cccc(CCl)c1
  boiling point: 196 °C

## CCCC#CCCCC(=O)O
  melting point: -3 °C

## c1ccc2c(c1)CCc1ccccc1-2
  log10 vapour pressure (mmHg): -3.22
  melting point: 34.5 °C

## CCCCCCCCCCCCCCCCCCCCCC(N)=O
  ready biodegradability: not readily biodegradable

## C[C@H]1C=CC2C(C1)C2(C)C (stereo in doubt)
  boiling point: 169 °C

## CC(F)(Cl)Cl
  boiling point: 32 °C
  log10 vapour pressure (mmHg): 2.78
  melting point: -104 °C

## Nc1ccc2c(n1)[nH]c1ccccc12
  melting point: 202 °C

## CC(C)NCC(O)c1ccc(O)c(O)c1 (configuration not stated)
  melting point: 170 °C

## CCOC(=O)C1(c2ccccc2)CCN(C)CC1
  melting point: 270 °C

## CC(N)=S
  log10 Koc (L/kg): 0.78
  melting point: 116 °C
  ready biodegradability: not readily biodegradable

## c1ccc(Sc2ccccc2)cc1
  boiling point: 296 °C
  log10 vapour pressure (mmHg): -2.12
  melting point: -25.9 °C

## Cc1cc(C)oc(=O)c1
  boiling point: 245 °C
  melting point: 51.5 °C

## CCOC(=O)C(Br)Br
  boiling point: 194 °C

## Cc1cc(C2(c3ccc(O)c(C)c3)OC(=O)c3ccccc32)ccc1O
  melting point: 223 °C

## C=C1CCCC1
  boiling point: 75.5 °C

## NCCOB(c1ccccc1)c1ccccc1
  melting point: 193 °C

## CC=CC=CC=CC=O
  melting point: 56.8 °C

## O=C(O)c1cccc([N+](=O)[O-])c1
  melting point: 141 °C
  ready biodegradability: not readily biodegradable
  log10 BCF: 0.85

## Cc1cc(NC(N)=O)ccc1Br
  log10 Koc (L/kg): 2.37

## CCCCCCCCCCCO
  boiling point: 243 °C
  log10 vapour pressure (mmHg): -2.53
  melting point: 19 °C
  ready biodegradability: readily biodegradable

## O=C(Nc1cccc2ccccc12)c1ccccc1C(=O)[O][Na]
  log10 Koc (L/kg): 3.34

## CC(=O)c1c(C)c[nH]c1C
  melting point: 138 °C

## O=C=Nc1cccc2ccccc12
  boiling point: 269 °C

## C=C(Cl)CCl
  boiling point: 94 °C
  log10 vapour pressure (mmHg): 1.79

## CCCC(Br)CC (configuration not stated)
  boiling point: 142 °C

## COc1ccc(C=O)c(C(=O)O)c1OC
  melting point: 150 °C

## O=c1c(O)c(-c2ccc(O)c(O)c2)oc2cc(O[C@@H]3O[C@H](CO)[C@@H](O)[C@H](O)[C@H]3O)cc(O)c12
  melting point: 248 °C

## C=CC(F)(F)C(F)(F)C(F)(F)C(F)(F)C(F)(F)C(F)(F)F
  boiling point: 104 °C

## CC[N+](C)(C)CCOC(=O)CCC(=O)OCC[N+](C)(C)CC.[Br-].[Br-]
  melting point: 158 °C

## CCC1CCNCC1
  boiling point: 154 °C

## CCCCCCCCCCCCCCCCCC(CC)c1ccccc1 (configuration not stated)
  melting point: 29.3 °C

## CCCCC=CC=O
  boiling point: 166 °C

## c1ccc2c(c1)[nH]c1ccccc12
  boiling point: 355 °C
  log10 Henry constant (atm·m³/mol): -6.94
  log10 Koc (L/kg): 3.4
  log10 vapour pressure (mmHg): -6.12
  melting point: 246 °C
  ready biodegradability: not readily biodegradable
  log10 BCF: 2.23
  log10 biotransformation half-life (days): 0.06

## O=C(O)c1ccccc1S(=O)(=O)O
  melting point: 141 °C
  ready biodegradability: not readily biodegradable

## CCC=C(C)C
  boiling point: 67.3 °C
  log10 vapour pressure (mmHg): 2.2
  melting point: -135 °C

## COc1cc(C=CCO)ccc1O
  melting point: 74 °C

## CCOB(OCC)OCC
  boiling point: 120 °C
  log10 vapour pressure (mmHg): 1.22
  melting point: -84.8 °C

## Oc1cc(Cl)cc(Cl)c1
  boiling point: 233 °C
  log10 Koc (L/kg): 2.83
  log10 vapour pressure (mmHg): -2.07
  melting point: 68 °C
  ready biodegradability: not readily biodegradable
  log10 BCF: 1.91
  log10 biotransformation half-life (days): -0.91

## CCCCCCCC=O
  boiling point: 171 °C
  log10 Henry constant (atm·m³/mol): -3.29
  log10 Koa: 5.36
  log10 vapour pressure (mmHg): 0.0719
  melting point: -23 °C

## CC(=O)OCC(=O)[C@@]12OC(C)(C)O[C@@H]1C[C@H]1[C@@H]3CC(C=O)=C4C=C(OCCCl)CC[C@]4(C)[C@@]3(F)[C@@H](O)C[C@@]12C
  melting point: 181 °C

## CC1OC1C (configuration not stated)
  boiling point: 58.2 °C
  melting point: -82.5 °C

## O=S1(=O)OCC2C(CO1)C1(Cl)C(Cl)=C(Cl)C2(Cl)C1(Cl)Cl (configuration not stated)
  log10 vapour pressure (mmHg): -6.55
  melting point: 182 °C

## CCCCC(=O)OC
  boiling point: 127 °C
  log10 Henry constant (atm·m³/mol): -3.5
  log10 vapour pressure (mmHg): 1.28

## CC(=O)OC(C)(C)C
  boiling point: 97 °C
  log10 vapour pressure (mmHg): 1.67

## Clc1ccc(-c2cc(Cl)c(Cl)c(Cl)c2Cl)cc1
  melting point: 98 °C
  log10 biotransformation half-life (days): 2.36
